# Assay results as given in a melting point compilation (Tetko et al.).
row,SMILES,melting point
1,CC(C)c1ccc(C(=O)CCl)cc1,44 to 46 °C
2,Sc1nnc(NCCCN2CCOCC2)s1,145 to 147 °C
3,Cc1cc(C)nc(-n2nc(N)cc2C)n1,134 to 136 °C
4,CCSc1cc(Br)ccc1C=O,50 to 52 °C
5,Cc1cc(N)n(C2CCOCC2)n1,177 to 179 °C
6,O=C(O)C1CCCCC1c1nc2cc(Cl)ccc2[nH]1 (centres undefined),199 to 201 °C
7,CNc1snc(C)c1C(=O)O,151 to 153 °C
8,CC(Cl)C(=O)N1CCN(C(=O)OC(C)(C)C)CC1 (centres undefined),115 to 117 °C
9,Cc1c(C(=O)O)cnn1C1CCCCC1,143 to 145 °C
10,Cc1nn(CCO)c(C(F)(F)Cl)c1C(=O)O,124 to 126 °C
11,CCCCCCCCCCCC(=O)c1ccc(O)cc1,71 to 73 °C
12,COc1ccc(S(=O)(=O)N2CCOCC2)cc1N,189 to 191 °C
13,CC(C)N1CCN(C2CCNCC2)CC1,49 to 51 °C
14,NC(=O)N1CCc2cc(S(=O)(=O)F)ccc21,218 to 220 °C
15,Nc1cc(Cl)ccc1C(=O)N1CCCCC1,103 to 105 °C
16,Clc1nc(-c2cccnc2)nc2sc3c(c12)CCC3,145 to 147 °C
17,Cc1nn(C)c(N)c1SC#N,176 to 178 °C
18,Cc1cnc2c(c1)NC(=O)CN2,249 to 251 °C
19,CN(C)c1ncc(N)cn1,78 to 80 °C
20,CC(C)(C)OC(=O)NC1(CC(=O)O)CCC1,126 to 128 °C
21,CS(=O)(=O)Nc1ccccc1F,75 to 77 °C
22,Nc1nnc(C23CC4CC(CC(C4)C2)C3)s1,197 to 199 °C
23,CC(C)(C)OC(=O)C(C#N)c1ccc([N+](=O)[O-])cn1 (centres undefined),168 to 170 °C
24,CCc1nc(C)c(C(=O)O)s1,165 to 167 °C
25,O=C(O)c1ccc(F)cc1S,171 to 173 °C
26,NNc1c(Cl)cc(C(=O)O)cc1Cl,207 to 209 °C
27,CC(C)C(=O)N(C)CC(=O)O,109 to 111 °C

row,SMILES,melting point
1,CC(=O)NCCc1ccc(C(=O)CCl)cc1F,97 to 99 °C
2,COc1ccc(Br)cc1CBr,51 to 58 °C
3,Nc1nc2c(Cl)c(Cl)ccc2s1,129 to 131 °C
4,Nc1cccc(CN2CCC(CO)CC2)c1,89 to 91 °C
5,O=C(O)C1CCCN1S(=O)(=O)c1cccs1 (centres undefined),99 to 101 °C
6,O=C(CCl)c1ccc(F)c(Cl)c1,37 to 39 °C
7,COc1ccc(Cn2nccc2N)c(OC)c1OC,71 to 75 °C
8,Nc1ccnn1Cc1ccc(Cl)c(F)c1,68 to 70 °C
9,COc1cc2nc(C)sc2cc1OC,70 to 72 °C
10,Cc1cc2n(n1)C(C(F)(F)F)CCN2 (centres undefined),169 to 171 °C
11,O=C1CNC(=O)N1C1CC1,144 to 146 °C
12,CC(C)(C#N)NS(C)(=O)=O,61 to 63 °C
13,c1nc(C2CCCCN2)n[nH]1 (centres undefined),104 to 106 °C
14,Nc1cc(S(=O)(=O)NCCCN2CCOCC2)ccc1Cl,< 17 °C
15,O=C(O)c1cc2c(F)ccc(F)c2[nH]1,229 to 231 °C
16,O=[N+]([O-])c1cccc(C(F)F)c1Br,29 to 31 °C
17,NS(=O)(=O)N1CCC(C(=O)O)CC1,177 to 179 °C
18,Cc1nc2nc(N)nn2c(C)c1CC(=O)O,260 to 264 °C
19,CC(C)Cc1csc2nc(CC#N)[nH]c(=O)c12,218 to 220 °C
20,CC(C)C(N)c1nn[nH]n1 (centres undefined),272 to 274 °C
21,COc1ccc(C=O)c([N+](=O)[O-])c1,91 to 93 °C
22,O=C(O)c1ccc[nH]1,204 to 208 °C
23,Cc1ccc(CN)cn1,59 to 61 °C
24,Cc1nnc(N2CCCC2)c(C(N)=S)c1C,169 to 171 °C
25,O=C(CCCl)Nc1ccc(N2CCOCC2)cc1,192 to 194 °C
26,Cc1cc(Cl)n2ncnc2c1,93 to 95 °C
27,CCC1=NN(C)C(=O)C1,89 to 91 °C

row,SMILES,melting point
1,Nc1ncc(-c2cccc(F)c2)s1,168 to 170 °C
2,O=C(O)Cn1cn[nH]c1=O,217 to 219 °C
3,OCc1nc2cc(Cl)ccc2s1,113 to 115 °C
4,O=C(O)c1cc(Cl)n[nH]c1=O,212 to 214 °C
5,COCCOc1c(Cl)cc(N)cc1Cl,58 to 60 °C
6,Nc1ccc(N2CCNC(=O)C2)nc1,136 to 138 °C
7,CC1CC(=O)NC1=O (centres undefined),61 to 63 °C
8,Cc1cc2c(n1-c1cccc(C(F)(F)F)c1)CCCC2=O,121 to 123 °C
9,COCCc1nc2cc(N)ccc2o1,44 to 46 °C
10,Cn1c(=O)oc2cc(Br)ccc21,144 to 146 °C
11,CC(=O)c1ccc(S(=O)(=O)CC(=O)O)cc1F,149 to 151 °C
12,CS(=O)(=O)c1ccc(CCN)cc1,76 to 78 °C
13,Cc1c(Br)cc(C(=O)O)cc1S(=O)(=O)Cl,183 to 185 °C
14,Cc1c(C(=O)O)sc2nc(CCl)[nH]c(=O)c12,322 to 324 °C
15,NC(=O)c1cccc(C(N)=S)c1,210 to 212 °C
16,Oc1ccc2nc[nH]c2c1,215 to 217 °C
17,NC1(c2ccc(Br)cc2)CCOCC1,85 to 87 °C
18,CS(=O)(=O)Cc1ccc(Cl)cc1N,140 to 142 °C
19,CC(=O)NC1(c2noc(CCl)n2)CCCC1,74 to 76 °C
20,N#CCC(=O)c1ccc(F)c(F)c1,67 to 69 °C
21,CCS(=O)(=O)c1ccccc1N1CCC(N)CC1,119 to 121 °C
22,Nc1nc(-c2cccs2)ns1,163 to 165 °C
23,O=[N+]([O-])c1cc(S(=O)(=O)N2CCOCC2)ccc1N1CCOCC1,154 to 156 °C
24,CC1CC(O)CC(C)N1 (centres undefined),109 to 111 °C
25,COc1cc2c(cc1OC)C(c1cccs1)NCC2 (centres undefined),112 to 115 °C

# Second part, the molecule after the results:
row,melting point,SMILES
1,111 to 113 °C,N#Cc1cccc(-c2cscn2)c1
2,72 to 74 °C,NC(CCCO)c1ccccc1 (centres undefined)
3,76 to 78 °C,NCCC(=O)N1CCN(c2ccccn2)CC1
4,202 to 204 °C,O=C(NC(Cc1ccccc1)C(=O)O)c1cccs1 (centres undefined)
5,108 to 110 °C,CNCC(=O)N(C)c1ccccn1
6,102 to 104 °C,Cc1nc2ccccc2nc1Br
7,194 to 196 °C,O=C(O)c1cc([N+](=O)[O-])ccc1I
8,115 to 117 °C,NCC(O)c1ccc2ccccc2c1 (centres undefined)
9,209 to 211 °C,Nc1ccc(-c2cn3c(n2)CCCC3)cc1
10,128 to 130 °C,Cn1nnnc1-c1cccc(NC(=O)OCC(F)(F)F)c1
11,174 to 176 °C,Cc1cc(-c2nc3cc(F)ccc3n2C)ccc1N
12,125 to 127 °C,COc1cccc(NC(=O)c2ccccc2N(C)C(=O)CCC(=O)O)c1
13,60 to 62 °C,Oc1ccc(OCC(F)(F)F)cc1
14,220 to 222 °C,Fc1ccc2nc(S)n(-c3ccccc3F)c2c1
15,203 to 205 °C,Cc1ccc(NS(=O)(=O)c2cccc(C(=O)O)c2)cc1
16,236 to 238 °C,Cc1ccc(-c2cnnn2-c2ccc(C(=O)O)cc2)cc1
17,269 to 271 °C,O=C(O)c1ccnc(OCCOc2cc(C(=O)O)ccn2)c1
18,200 to 202 °C,O=C(O)c1ccc(OCC(F)(F)F)cc1
19,57 to 59 °C,Cc1ccc(S(=O)(=O)N2CC(Cc3cccc(F)c3)C2)cc1
20,297 to 299 °C,Nn1c(=O)[nH]c2ccccc2c1=O
21,157 to 159 °C,Oc1ccc(OCc2cccnc2)cc1
22,192 to 194 °C,CC1(CCc2ccc(O)cc2)NC(=O)NC1=O (centres undefined)

row,melting point,SMILES
1,40 to 42 °C,CC(C)OCc1ccccc1CNC(=O)CCl
2,76 to 78 °C,COc1ccc(C(C)=O)cc1-c1cccc(C(F)(F)F)c1
3,93 to 95 °C,O=C(O)CCOc1ccc(Cl)cc1Cl
4,240 to 242 °C,NC(=O)c1ccc(C(N)=S)cc1
5,189 to 191 °C,NC(=S)Cc1cn2cc(Cl)cc(Cl)c2n1
6,86 to 88 °C,O=C1C=CC(=O)N1c1cccc(Cl)c1
7,190 to 192 °C,CCn1c(C)cs/c1=N\c1ccc(Cl)cc1
8,124 to 126 °C,CCCCCCn1nc(C(=O)O)c2ccccc2c1=O
9,167 to 170 °C,NC(=O)c1cnn(-c2ccccc2)c1N
10,190 to 192 °C,O=C(O)/C=C/c1ccc(OCc2cn3ccccc3n2)cc1
11,155 to 157 °C,COc1ccc(Cl)cc1NS(=O)(=O)c1cccc(C(=O)O)c1
12,61 to 63 °C,Cc1nc(Cl)c(C)c(-n2cccn2)n1
13,169 to 171 °C,O=C(O)c1cc2ccccc2nc1N1CCCC1
14,44 to 46 °C,CNC(c1ccc(Cl)cc1)c1cccnc1 (centres undefined)
15,320 to 322 °C,O=C(O)c1cc(/C=C/c2ccc(Cl)cc2)nc2ccc(Br)cc12
16,96 to 98 °C,OCCn1nc(-c2ccccc2)cc1-c1ccccc1
17,35 to 37 °C,CCCOc1cc(C=O)ccc1OC
18,121 to 123 °C,COc1ccc(C(=O)c2ccc(Cl)cc2)cc1C
19,75 to 77 °C,CC(=O)OCc1ccc(S(=O)(=O)C(F)F)cc1
20,195 to 197 °C,Nc1nc(-c2ccc(Oc3ccccc3)cc2)cs1
21,161 to 163 °C,Cn1c(Cl)nnc1-c1ccccc1
22,125 to 127 °C,O=C(O)COc1cccc2cccnc12

row,melting point,SMILES
1,131 to 133 °C,Cn1cc(C=O)c(-c2ccncc2)n1
2,164 to 166 °C,CCc1nc(C(=O)O)nn1-c1ccccc1Cl
3,238 to 240 °C,Cc1ccc2ncnc(O)c2c1
4,216 to 218 °C,CC(C)n1cnc2cc(C(=O)O)ccc21
5,133 to 135 °C,O=C(O)c1ccc(Cl)c(S(=O)(=O)NCc2ccco2)c1
6,164 to 166 °C,O=C(Nc1cccc(O)c1)c1ccco1
7,161 to 163 °C,O=C(O)C(Oc1ccc(Cl)cc1)c1ccccc1 (centres undefined)
8,53 to 55 °C,N#Cc1ccccc1-c1ccc(CN)cc1
9,228 to 230 °C,O=C(O)c1cnn2c(-c3ccccc3)ccnc12
10,226 to 228 °C,CC(C)n1cccc1C(=O)Nc1cc(Cl)ccc1C(=O)O
11,248 to 250 °C,CCOc1ccc(-c2csc(N)n2)cc1
12,220 to 222 °C,O=C(O)Cn1ccccc1=O
13,114 to 116 °C,Cc1nn(-c2cccc(Cl)c2)c2ncc(Br)cc12
14,203 to 205 °C,CCS(=O)(=O)N1CCC(C(=O)O)(c2ccccc2)CC1
15,96 to 98 °C,O=C(Nc1ccccc1F)C1CCc2ccccc2N1 (centres undefined)
16,179 to 181 °C,O=C(O)c1ccc(CSc2ccccc2)cc1
17,37 to 39 °C,O=C(CC(F)(F)F)c1ccccc1
18,79 to 81 °C,Nc1ccc(OCc2cccc(F)c2)c(Cl)c1
19,129 to 131 °C,CC(C)(C)OC(=O)n1ccc(N)n1
20,159 to 161 °C,Fc1ccc(-c2ccc(Cl)nn2)cc1
21,64 to 66 °C,Cc1ccccc1C1CC1C(=O)O (centres undefined)
